These results are taken from US12441722B2, “Therapeutic agents and methods of treatment” (University of Florida Research Foundation, Incorporated, priority 2020, dated 2025).

pEC50: −log10 of the molar value.

The test system of the first assay is MOLT-4. Briefly: Cell viability assay (tetrazolium-based MTS) in MOLT4 cells. The note with it: Homo sapiens, MOLT-4, MOLT4 acute lymphoblastic leukemia cells, 48 h incubation. The method, then:
Cancer cells from acute lymphoblastic leukemia (MOLT4) were incubated with increasing concentrations of compounds of Examples 1-9 for 48 h. Cell viability was measured by tetrazolium-based MTS assay. 5×10^4 to 1×10^5 suspension cells or 3×10^3 to 5×10^3 adherent cells were seeded and treated in 96-well plates for 48 h. The EC50 values of individual agents were calculated with GraphPad Prism.
As to `Cc1ncsc1-c1ccc([C@H](C)NC(=O)[C@@H]2C[C@@H](O)CN2C(=O)[C@@H](NC(=O)CCCCCCCNC(=O)c2nc(N3CCc4cccc(C(=O)Nc5nc6ccccc6s5)c4C3)ccc2-c2cnn(CC34CC5CC(CC(C5)C3)C4)c2C)C(C)(C)C)cc1` [degrader #19, 2-(5-(1-(adamantan-1-ylmethyl)-5-methyl-1H-pyrazol-4-yl)-6-((8-(((S)-1-((2S,4R)-4-hydroxy-2-(((S)-1-(4-(4-methylthiazol-5-yl)phenyl)ethyl)carbamoyl)pyrrolidin-1-yl)-3,3-dimethyl-1-oxobutan-2-yl)amino)-8-oxooctyl)carbamoyl)pyridin-2-yl)-N-(benzo[d]thiazol-2-yl)-1,2,3,4-tetrahydroisoquinoline-8-carboxamide], the pEC50 is 7.00 to 8.00.
Regarding `Cc1ncsc1-c1ccc([C@H](CC(=O)NCCNC(=O)c2nc(N3CCc4cccc(C(=O)Nc5nc6ccccc6s5)c4C3)ccc2-c2cnn(CC34CC5CC(CC(C5)C3)C4)c2C)NC(=O)[C@@H]2C[C@@H](O)CN2C(=O)[C@@H](NC(=O)C2(C#N)CC2)C(C)(C)C)cc1` [degrader #20, 2-(5-(1-(adamantan-1-ylmethyl)-5-methyl-1H-pyrazol-4-yl)-6-((2-((S)-3-((2S,4R)-1-((S)-2-(1-cyanocyclopropane-1-carboxamido)-3,3-dimethylbutanoyl)-4-hydroxypyrrolidine-2-carboxamido)-3-(4-(4-methylthiazol-5-yl)phenyl)propanamido)ethyl)carbamoyl)pyridin-2-yl)-N-(benzo[d]thiazol-2-yl)-1,2,3,4-tetrahydroisoquinoline-8-carboxamide], the pEC50 was 7.00 to 8.00.
As to `Cc1c(-c2ccc(N3CCc4cccc(C(=O)Nc5nc6ccccc6s5)c4C3)nc2C(=O)NCCCCCCCCNc2cccc3c2C(=O)N(C2CCC(=O)NC2=O)C3=O)cnn1CC12CC3CC(CC(C3)C1)C2` (stereo not shown) [degrader #5, 2-(5-(1-(adamantan-1-ylmethyl)-5-methyl-1H-pyrazol-4-yl)-6-((8-((2-(2,6-dioxopiperidin-3-yl)-1,3-dioxoisoindolin-4-yl)amino)octyl)carbamoyl)pyridin-2-yl)-N-(benzo[d]thiazol-2-yl)-1,2,3,4-tetrahydroisoquinoline-8-carboxamide], the negative-log EC50 (pEC50) was 6.00 to 7.00.
`Cc1c(-c2ccc(N3CCc4cccc(C(=O)Nc5nc6ccccc6s5)c4C3)nc2C(=O)NCCOCCOCCNc2cccc3c2C(=O)N(C2CCC(=O)NC2=O)C3=O)cnn1CC12CC3CC(CC(C3)C1)C2` (stereo not shown) [degrader #7, 2-(5-(1-(adamantan-1-ylmethyl)-5-methyl-1H-pyrazol-4-yl)-6-((2-(2-(2-((2-(2,6-dioxopiperidin-3-yl)-1,3-dioxoisoindolin-4-yl)amino)ethoxy)ethoxy)ethyl)carbamoyl)pyridin-2-yl)-N-(benzo[d]thiazol-2-yl)-1,2,3,4-tetrahydroisoquinoline-8-carboxamide] gave a negative logarithm of the EC50 (pEC50) of 7.00 to 8.00.
The molecule `Cc1ncsc1-c1ccc([C@H](C)NC(=O)[C@@H]2C[C@@H](O)CN2C(=O)[C@@H](NC(=O)CCCCS(=O)(=O)NC(=O)c2nc(N3CCc4cccc(C(=O)Nc5nc6ccccc6s5)c4C3)ccc2-c2cnn(CC34CC5CC(CC(C5)C3)C4)c2C)C(C)(C)C)cc1` [degrader #10, 2-(5-(1-(adamantan-1-ylmethyl)-5-methyl-1H-pyrazol-4-yl)-6-(((5-(((S)-1-((2S,4R)-4-hydroxy-2-(((S)-1-(4-(4-methylthiazol-5-yl)phenyl)ethyl)carbamoyl)pyrrolidin-1-yl)-3,3-dimethyl-1-oxobutan-2-yl)amino)-5-oxopentyl)sulfonyl)carbamoyl)pyridin-2-yl)-N-(benzo[d]thiazol-2-yl)-1,2,3,4-tetrahydroisoquinoline-8-carboxamide] gave a pEC50 of more than 8.00.
Still for that read-out and setting: to `Cc1ncsc1-c1ccc([C@H](C)NC(=O)[C@@H]2C[C@@H](O)CN2C(=O)[C@@H](NC(=O)CCCS(=O)(=O)NC(=O)c2nc(N3CCc4cccc(C(=O)Nc5nc6ccccc6s5)c4C3)ccc2-c2cnn(CC34CC5CC(CC(C5)C3)C4)c2C)C(C)(C)C)cc1` [degrader #9, 2-(5-(1-(adamantan-1-ylmethyl)-5-methyl-1H-pyrazol-4-yl)-6-(((4-(((S)-1-((2S,4R)-4-hydroxy-2-(((S)-1-(4-(4-methylthiazol-5-yl)phenyl)ethyl)carbamoyl)pyrrolidin-1-yl)-3,3-dimethyl-1-oxobutan-2-yl)amino)-4-oxobutyl)sulfonyl)carbamoyl)pyridin-2-yl)-N-(benzo[d]thiazol-2-yl)-1,2,3,4-tetrahydroisoquinoline-8-carboxamide] belongs more than 8.00; to `Cc1ncsc1-c1ccc([C@H](CC(=O)NCCCNC(=O)c2nc(N3CCc4cccc(C(=O)Nc5nc6ccccc6s5)c4C3)ccc2-c2cnn(CC34CC5CC(CC(C5)C3)C4)c2C)NC(=O)[C@@H]2C[C@@H](O)CN2C(=O)[C@@H](NC(=O)C2(C#N)CC2)C(C)(C)C)cc1` [degrader #21, 2-(5-(1-(adamantan-1-ylmethyl)-5-methyl-1H-pyrazol-4-yl)-6-((3-((S)-3-((2S,4R)-1-((S)-2-(1-cyanocyclopropane-1-carboxamido)-3,3-dimethylbutanoyl)-4-hydroxypyrrolidine-2-carboxamido)-3-(4-(4-methylthiazol-5-yl)phenyl)propanamido)propyl)carbamoyl)pyridin-2-yl)-N-(benzo[d]thiazol-2-yl)-1,2,3,4-tetrahydroisoquinoline-8-carboxamide], 6.00 to 7.00.

The assay is the same for the next values; noted with them: MOLT4 acute lymphoblastic leukemia cells, 48 h incubation.
Molecule `Cc1c(-c2ccc(N3CCc4cccc(C(=O)Nc5nc6ccccc6s5)c4C3)nc2C(=O)O)cnn1CC12CC3CC(C1)CC(C(=O)NCCCCCCNc1cccc4c1C(=O)N(C1CCC(=O)NC1=O)C4=O)(C3)C2` (stereo not shown) [degrader #35, 6-(8-(benzo[d]thiazol-2-ylcarbamoyl)-3,4-dihydroisoquinolin-2(1H)-yl)-3-(1-(((1r,3r)-3-((6-((2-(2,6-dioxopiperidin-3-yl)-1,3-dioxoisoindolin-4-yl)amino)hexyl)carbamoyl)adamantan-1-yl)methyl)-5-methyl-1H-pyrazol-4-yl)picolinic acid] showed a negative-log EC50 (pEC50) of 7.00 to 8.00.
`Cc1c(-c2ccc(N3CCc4cccc(C(=O)Nc5nc6ccccc6s5)c4C3)nc2C(=O)NCCOCCOCCOCCCc2ccc3c(c2)CN(C2CCC(=O)NC2=O)C3=O)cnn1CC12CC3CC(CC(C3)C1)C2` (stereo not shown) [degrader #33, 2-(5-(1-(adamantan-1-ylmethyl)-5-methyl-1H-pyrazol-4-yl)-6-((2-(2-(2-(3-(2-(2,6-dioxopiperidin-3-yl)-1-oxoisoindolin-5-yl)propoxy)ethoxy)ethoxy)ethyl)carbamoyl)pyridin-2-yl)-N-(benzo[d]thiazol-2-yl) 1,2,3,4-tetrahydroisociuinoline-8-carboxamide] gave a pEC50 of more than 8.00.
For the molecule `Cc1ncsc1-c1ccc([C@H](CC(=O)NCCCCCCCCNC(=O)c2nc(N3CCc4cccc(C(=O)Nc5nc6ccccc6s5)c4C3)ccc2-c2cnn(CC34CC5CC(CC(C5)C3)C4)c2C)NC(=O)[C@@H]2C[C@@H](O)CN2C(=O)[C@@H](NC(=O)C2(C#N)CC2)C(C)(C)C)cc1` [degrader #25, 2-(5-(1-(adamantan-1-ylmethyl)-5-methyl-1H-pyrazol-4-yl)-6-((8-((S)-3-((2S,4R)-1-((S)-2-(1-cyanocyclopropane-1-carboxamido)-3,3-dimethylbutanoyl)-4-hydroxypyrrolidine-2-carboxamido)-3-(4-(4-methylthiazol-5-yl)phenyl)propanamido)octyl)carbamoyl)pyridin-2-yl)-N-(benzo[d]thiazol-2-yl)-1,2,3,4-tetrahydroisoquninoline-8-carboxamide], the negative logarithm of the EC50 (pEC50) was 6.00 to 7.00.
`Cc1ncsc1-c1ccc([C@H](C)NC(=O)[C@@H]2C[C@@H](O)CN2C(=O)[C@@H](NC(=O)CCCCCCNC(=O)C23CC4CC(CC(Cn5ncc(-c6ccc(N7CCc8cccc(C(=O)Nc9nc%10ccccc%10s9)c8C7)nc6C(=O)O)c5C)(C4)C2)C3)C(C)(C)C)cc1` [degrader #43, 6-(8-(benzo[d]thiazol-2-ylcarbamoyl)-3,4-dihydroisoquinolin-2(1H)-yl)-3-(1-(((1S,3r)-3-((7-(((S)-1-((2S,4R)-4-hydroxy-2-(((S)-1-(4-(4-methylthiazol-5-yl)phenyl)ethyl)carbamoyl)pyrrolidin-1-yl)-3,3-dimethyl-1-oxobutan-2-yl)amino)-7-oxoheptyl)carbamoyl)adamantan-1-yl)methyl)-5-methyl-1H-pyrazol-4-yl)picolinic acid] had a pEC50 of 6.00 to 7.00.
In turn, `Cc1ncsc1-c1ccc([C@H](C)NC(=O)[C@@H]2C[C@@H](O)CN2C(=O)[C@@H](NC(=O)CCCCCCS(=O)(=O)NC(=O)c2nc(N3CCc4cccc(C(=O)Nc5nc6ccccc6s5)c4C3)ccc2-c2cnn(CC34CC5CC(CC(C5)C3)C4)c2C)C(C)(C)C)cc1` [degrader #12, 2-(5-(1-(adamantan-1-ylmethyl)-5-methvl-1H-pyrazol-4-yl)-6-(((7-(((S)-1-((2S,4R)-4-hydroxy-2-(((S)-1-(4-(4-methylthiazol-5-yl)phenyl)ethyl)carbamoyl)pyrrolidin-1-yl)-3,3-dimethyl-1-oxobutan-2-yl)amino)-7-oxoheptyl)sulfonyl)carbamol)pyridin-2-yl)-N-(benzo[d]thiazol-2-yl)-1,2,3,4-tetrahydroisoquinoline-8-carboxamide] had a pEC50 of more than 8.00.
Still for that read-out and setting: to `Cc1c(-c2ccc(N3CCc4cccc(C(=O)Nc5nc6ccccc6s5)c4C3)nc2C(=O)O)cnn1CC12CC3CC(C1)CC(C(=O)NCCOCCOCCOCCNc1cccc4c1C(=O)N(C1CCC(=O)NC1=O)C4=O)(C3)C2` (stereo not shown) [degrader #40, 6-(8-(benzo[d]thiazol-2-ylcarbamoyl)-3,4-dihydroisoquinolin-2(1H)-yl)-3-(1-(((1r,3r)-3-((2-(2-(2-(2-((2-(2,6-dioxopiperidin-3-yl)-1,3-dioxoisoindolin-4-yl)amino)ethoxy)ethoxy)ethoxy)ethyl)carbamoyl)adamantan-1-yl)methyl)-5-methyl-1H-pyrazol-4-yl)picolinic acid] belongs 7.00 to 8.00.
